From patent US12643859B2, “Pyridyl oxycarboxylic acid oxime derivative and preparation method therefor, weeding composition and application thereof” (Qingdao Kingagroot Chemical Compound Co., Ltd., priority 2018, dated 2026)

What was measured:
Assay type in all cases: in vivo
Indica rice = assay: Post-emergence test experiment, crop selectivity; details: post-emergence spray, 600 g a.i./ha plus water 450 kg/ha, 3 weeks in greenhouse
Experimental: (§1) The above described growth inhibition rate is fresh weight inhibition rate.
(§2) Post-emergence test experiment: Monocotyledonous and dicotyledonous weed seeds and main crop seeds (i. e. wheat, corn, rice, soybean, cotton, oilseed, millet and sorghum.) were put into a plastic pot loaded with soil. Then covered with 0.5-2 cm soil, the seeds were allowed to grow in good greenhouse environment. The test plants were treated at 2-3 leaf stage 2 weeks after sowing. The test compounds of the invention were dissolved with acetone respectively, then added with tween-80, and using 1.5 liters per hectare of an emulsible concentrate of methyl oleate as a synergist, and diluted by certain amount of water to certain concentration. The solution was sprayed to the plants with a sprayer. Then the plants were cultured for 3 weeks in the greenhouse, and the experiment result of weed controlling effect was listed in tables 3-4.

Japonica rice = assay: Post-emergence test experiment, crop selectivity; details: post-emergence spray, 600 g a.i./ha plus water 450 kg/ha, 3 weeks in greenhouse
Experimental: as §1, §2

[1] = tested on: Monocotyledonous and dicotyledonous weed seeds and main crop seeds; assay: Post-emergence test experiment (Table 3, 1000 g a.i./ha); details: 3 weeks in greenhouse, fresh weight inhibition
Procedure, shortened: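 Weeds and crops (wheat, corn, rice, soybean, cotton, oilseed, millet, sorghum) grown in soil in the greenhouse and sprayed post-emergence at 2–3 leaf stage, 2 weeks after sowing. Compound in acetone with tween-80 plus methyl oleate emulsible concentrate (1.5 L/ha) as synergist, diluted in water. Fresh weight inhibition scored after 3 weeks.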

Cyperus iria = assay: Post-emergence test experiment, weed control; details: post-emergence spray, 600 g a.i./ha plus water 450 kg/ha, 3 weeks in greenhouse
Experimental: as §1, §2

Rice = assay: Transplanted rice safety evaluation; details: 1000 g a.i./ha, transplanted 3 leaf stage japonica rice, treated 5 days after transplantation, 21 days after treatment
Experimental: as §1
In addition, the rice field soil that loaded into the 1/1,000,000 ha pot was leveled to keep water storage at 3-4 cm depth. The 3 leaf stage rice (japonica rice) was transplanted at 3 cm of transplanting depth the next day. The compound of the present invention was treated by the same way after 5 days of transplantation.
(§3) The fertility condition of Scirpus juncoides, Sagittaria trifolia and Monochoria vaginalis 14 days after the treatment of the compound of the invention and the fertility condition of rice 21 days after the treatment of the compound of the invention respectively with the naked eye. Evaluate the weed control effect with 0-5 activity standard level.

Scirpus juncoides = assay: Weed control effect evaluation in rice field; details: 1000 g a.i./ha, paddy water application at 0.5 leaf stage, 14 days after treatment; weeds resistant to pyrazosulfuron-ethyl and penoxsulam
Description: as §1
(§4) Transplanted rice safety evaluation and weed control effect evaluation in rice field: Rice field soil was loaded into a 1/1,000,000 ha pot. The seeds of Scirpus juncoides, Sagittaria trifolia and Monochoria vaginalis were sowed and gently covered with soil, then left to stand still in greenhouse in the state of 0.5-1 cm of water storage. The tuber of Sagittaria trifolia was planted in the next day or 2 days later. It was kept at 3-4 cm of water storage thereafter. The weeds were treated by dripping the WP or SC water diluents prepared according to the common preparation method of the compounds of the present invention with pipette homogeneously to achieve specified effective amount when Scirpus juncoides, and Monochoria vaginalis reached 0.5 leaf stage and Sagittaria trifolia reached the time point of primary leaf stage.
as §3, with “level. Many compounds show excellent activity and selectivity.” for “level.”

Monochoria Vaginalis = assay: Weed control effect evaluation in rice field; details: 1000 g a.i./ha, paddy water application at 0.5 leaf stage, 14 days after treatment; weeds resistant to pyrazosulfuron-ethyl and penoxsulam
Description: as §1, §4
as §3, with “level. Many compounds show excellent activity and selectivity.” for “level.”

Sagittaria trifolia = assay: Weed control effect evaluation in rice field; details: 1000 g a.i./ha, paddy water application at primary leaf stage, 14 days after treatment; weeds resistant to pyrazosulfuron-ethyl and penoxsulam
Description: as §1, §4
as §3, with “level. Many compounds show excellent activity and selectivity.” for “level.”

Row | Structure (SMILES) | Activity level (fresh weight growth inhibition rate), Indica rice (Indica rice) | Activity level (fresh weight growth inhibition rate), Japonica rice (Japonica rice) | Activity level (growth inhibition rate) Digitaria sanguinalis [1] | Activity level (growth inhibition rate) Echinochloa crusgalli [1] | Activity level (growth inhibition rate) Galium spurium [1] | Activity level (growth inhibition rate) Leptochloa chinensis [1] | Activity level (growth inhibition rate) Monochoria Vaginalis [1] | Activity level (growth inhibition rate) Murdannia triquetra [1] | Activity level (growth inhibition rate) Setaria viridis [1] | Activity level (fresh weight growth inhibition rate), Cyperus iria (Cyperus iria) | Safety, 0-5 activity standard level, Rice (Rice) | Weed control effect, 0-5 activity standard level, Scirpus juncoides (Scirpus juncoides) | Weed control effect, 0-5 activity standard level, Monochoria Vaginalis (Monochoria Vaginalis) | Weed control effect, 0-5 activity standard level, Sagittaria trifolia (Sagittaria trifolia)
1 | CCOC(=NOC(=O)C(C)Oc1nc(F)c(Cl)c(N)c1Cl)c1ccc(NC(C)=O)cc1 (stereo not drawn) [Compound 88] | 0 (Level 0: the growth inhibition rate is less than 5%) | 0 (Level 0: the growth inhibition rate is less than 5%) | 5 (Level 5: the growth inhibition rate is greater than 85%) | 5 (Level 5: the growth inhibition rate is greater than 85%) | 5 (Level 5: the growth inhibition rate is greater than 85%) | 5 (Level 5: the growth inhibition rate is greater than 85%) | 5 (Level 5: the growth inhibition rate is greater than 85%) | 5 (Level 5: the growth inhibition rate is greater than 85%) | 5 (Level 5: the growth inhibition rate is greater than 85%) | 5 (Level 5: the growth inhibition rate is greater than 85%) | 0 (Level 0: the growth inhibition rate is less than 5%) | 4 (Level 4: the growth inhibition rate is equal to or greater than 60% and less than 85%) | 5 (Level 5: the growth inhibition rate is greater than 85%) | 4 (Level 4: the growth inhibition rate is equal to or greater than 60% and less than 85%)
2 | CC(=NOC(=O)C(C)Oc1nc(F)c(Cl)c(N)c1Cl)c1ccc(Cl)cc1 (stereo not drawn) [Compound 70] | 0 (Level 0: the growth inhibition rate is less than 5%) | 0 (Level 0: the growth inhibition rate is less than 5%) | 5 (Level 5: the growth inhibition rate is greater than 85%) | 5 (Level 5: the growth inhibition rate is greater than 85%) | 5 (Level 5: the growth inhibition rate is greater than 85%) | 5 (Level 5: the growth inhibition rate is greater than 85%) | 5 (Level 5: the growth inhibition rate is greater than 85%) | 5 (Level 5: the growth inhibition rate is greater than 85%) | 5 (Level 5: the growth inhibition rate is greater than 85%) | 5 (Level 5: the growth inhibition rate is greater than 85%) | 0 (Level 0: the growth inhibition rate is less than 5%) | 4 (Level 4: the growth inhibition rate is equal to or greater than 60% and less than 85%) | 5 (Level 5: the growth inhibition rate is greater than 85%) | 4 (Level 4: the growth inhibition rate is equal to or greater than 60% and less than 85%)
3 | COc1ccccc1C(F)=NOC(=O)C(C)Oc1nc(F)c(Cl)c(N)c1Cl (stereo not drawn) [Compound 84] | 0 (Level 0: the growth inhibition rate is less than 5%) | 0 (Level 0: the growth inhibition rate is less than 5%) | 5 (Level 5: the growth inhibition rate is greater than 85%) | 5 (Level 5: the growth inhibition rate is greater than 85%) | 5 (Level 5: the growth inhibition rate is greater than 85%) | 5 (Level 5: the growth inhibition rate is greater than 85%) | 5 (Level 5: the growth inhibition rate is greater than 85%) | 5 (Level 5: the growth inhibition rate is greater than 85%) | 5 (Level 5: the growth inhibition rate is greater than 85%) | 5 (Level 5: the growth inhibition rate is greater than 85%) | 0 (Level 0: the growth inhibition rate is less than 5%) | 4 (Level 4: the growth inhibition rate is equal to or greater than 60% and less than 85%) | 5 (Level 5: the growth inhibition rate is greater than 85%) | 4 (Level 4: the growth inhibition rate is equal to or greater than 60% and less than 85%)
